How the values were obtained:
Format in all cases: cell-based
CAL-33 cells = assay: Proliferation assay, adherent cells, crystal violet; settings: Homo sapiens, 96 h, CAL-33 (DSMZ ACC-447), squamous-cell carcinoma, head and nape, 4 days incubation
Description: (§1) Human tumour cells were originally obtained from the American Type Culture Collection (ATCC), the Deutsche Sammlung von Mikroorganismen and Zellkulturen (DSMZ) (German Collection of Microorganisms and Cell Cultures) in Braunschweig, CLS Cell Lines Service GmbH in Eppelheim, the Institut Gustave Roussy (Villejuif, France), or the Charité in Berlin (table 1). Adherently growing cells (A-673, RD, Rh30, Rh41, SK-N-AS, NCI-H2286, HCC-366, FaDu, CAL-33, RPMI-2650, SiHa) were plated out in a density of 3000-4000 cells/measurement point, depending on the rate of growth of the cell line, in a 96-well multititre plate in 200 μl of growth medium (DMEM/HAMS F12, 2 mM L-glutamine, 10% foetal calf serum). After 24 hours, the cells of one plate (zero plate) were dyed with crystal violet (see below), whereas the medium of the other plates was replaced with fresh culture medium (200 μl) to which the test substances were added in various concentrations (0 μM, and also in the range of 0.001-3 μM; the final concentration of the solvent dimethyl sulphoxide was 0.5%). The cells were incubated for 4 days in the presence of the test substances. Cell proliferation was determined by dyeing the cells with crystal violet: the cells were fixed at room temperature for 15 min by adding 20 μl/measurement point of an 11% strength glutaraldehyde solution. After washing the fixed cells three times with water, the plates were dried at room temperature. The cells were dyed by adding 100 μl/measurement point of a 0.1% strength crystal violet solution (pH adjusted to pH 3 by adding acetic acid). After washing the dyed cells three times with water, the plates were dried at room temperature. The dye was dissolved by adding 100 μl/measurement point of a 10% strength acetic acid solution. Absorbance was determined photometrically at a wavelength of 595 nm. The percentage change in cell growth was calculated by normalizing the measured values to the absorbance values of the zero plate (=0%) and the absorbance of the untreated (0 μM) cells (=100%). The measured data were normalized to 0% inhibition (cell proliferation without inhibitor) and 100% inhibition (zero plate). The IC50 values were determined by means of a four parameter fit.
(§2) The substances were investigated in the following cell lines, which, by way of example, represent the specified indications (table 1).

A-673 cells = assay: as above; settings: Homo sapiens, A673, 96 h, A-673 (ATCC CRL-1598), rhabdomyosarcoma, 4 days incubation
Description: as §1, §2

SK-N-AS cells = assay: as above; settings: Homo sapiens, 96 h, SK-N-AS (ATCC CRL-2137), neuroblastoma, 4 days incubation
Description: as §1, §2

NCI-H2286 cells = assay: as above; settings: Homo sapiens, 96 h, NCI-H2286 (ATCC CRL-5938), squamous-cell carcinoma, lung, 4 days incubation
Description: as §1, §2

Rh30 cells = assay: as above; settings: Homo sapiens, 96 h, Rh30 (DSMZ ACC-489), rhabdomyosarcoma, 4 days incubation
Description: as §1, §2

RD cells = assay: as above; settings: Homo sapiens, 96 h, RD (CLS-300401), rhabdomyosarcoma, 4 days incubation
Description: as §1, §2

RPMI-2650 cells = assay: as above; settings: Homo sapiens, 96 h, RPMI-2650 (DSMZ ACC-287), squamous-cell carcinoma, head and nape, 4 days incubation
Description: as §1, §2

HCC-366 cells = assay: as above; settings: Homo sapiens, HCC366, 96 h, HCC-366 (DSMZ ACC-492), squamous-cell carcinoma, lung, 4 days incubation
Description: as §1, §2

Rh41 cells = assay: as above; settings: Homo sapiens, 96 h, Rh41 (DSMZ ACC-592), rhabdomyosarcoma, 4 days incubation
Description: as §1, §2

SiHa cells = assay: as above; settings: Homo sapiens, 96 h, SiHa (ATCC HTB-35), squamous-cell carcinoma, cervix, 4 days incubation
Description: as §1, §2

FaDu cells = assay: as above; settings: Homo sapiens, 96 h, FaDu (ATCC HTB-43), squamous-cell carcinoma, head and nape, 4 days incubation
Description: as §1, §2

HBL-1 cells = assay: Proliferation assay, suspension cells, Cell Titer-Glo; settings: Homo sapiens, HBL1, 96 h; HBL-1 (Charité, Berlin), diffuse large B-cell lymphoma; 4 days incubation; CTG
Description: (§3) Cells growing in suspension (HBL-1, TMD-8, GRANTA-519, Jeko-1) were plated out in a cell density of 2000-4000 cells/measurement point, depending on the rate of growth of the cell line, in a black-walled, clear-bottom 96-well multititre plate in 100 μl of growth medium (DMEM/HAMS F12, 2 mM L-glutamine, 10% foetal calf serum). After 24 hours, cell density was determined in one plate (zero plate) by adding 60 μl/measurement point of CTG solution (Promega Cell Titer-Glo solution (catalogue numbers G755B and G756B)), subsequent incubation for 2 min followed by 10 min shaking (in the dark) and measurement of luminescence (VICTOR V, Perkin Elmer). For the test plates, the test substances were prepared in various concentrations (0 μM, and also in the range of 0.001-3 μM; the final concentration of the solvent dimethyl sulphoxide was 0.5%) as 3× concentrated solutions in fresh growth medium. Aliquots of 50 μl each were added to the cell suspensions and the cells were incubated for 4 days in the presence of the test substances. Subsequently, cell density was determined using CTG solution as described above and IC50 values were calculated by means of a four parameter fit.
as §2

Jeko-1 cells [1] = assay: as above; settings: Homo sapiens, 96 h; Jeko-1 (DSMZ ACC-553), mantle cell lymphoma; 4 days incubation; CTG
Description: as §3, §2

TMD-8 cells = assay: as above; settings: Homo sapiens, TMD8, 96 h; TMD-8 (Charité, Berlin), diffuse large B-cell lymphoma; 4 days incubation; CTG
Description: as §3, §2

GRANTA-519 cells = assay: as above; settings: Homo sapiens, 96 h; GRANTA-519 (DSMZ ACC-342), mantle cell lymphoma; 4 days incubation; CTG
Description: as §3, §2

UPN-1 cells = assay: Cytotoxic action after 24 hours, WST-1 viability; settings: Homo sapiens, UPN1, UPN-1 (Institut Gustave Roussy), mantle cell lymphoma, after 24 hours of incubation
Description: (§4) The cytotoxic action of BAY 1000394 on Jeko-1 and UPN-1 cells was also determined after 24 hours of incubation with the substance. To this end, 50 000 cells per measurement point were plated out in 96-well plates and incubated with BAY 1000394 in various concentrations in the range of 0.001 to 1.0 μM. After 24 hours, the viability of the cells was determined in accordance with the WST-1 method (Roche Diagnostics, catalogue number 11644807001).
as §2

Jeko-1 cells [2] = assay: Cytotoxic action after 24 hours, WST-1 viability; settings: Homo sapiens, Jeko-1 (Institut Gustave Roussy), mantle cell lymphoma, after 24 hours of incubation
Description: as §4, §2

IC50 (SK-N-AS cells): 22 nM | IC50 (NCI-H2286 cells): 7 nM | IC50 (HCC-366 cells): 20 nM
Structure (SMILES): C[C@@H](O)[C@@H](C)Oc1nc(Nc2ccc([S@](=N)(=O)C3CC3)cc2)ncc1C(F)(F)F [BAY 1000394, (R)-S-cyclopropyl-S-(4-{[4-{[(1R, 2R)-2-hydroxy-1-methylpropyl]oxy}-5-(trifluoromethyl)pyrimidin-2-yl]amino}phenyl)sulphoximide]
IC50 (CAL-33 cells): 19 nM | IC50 (A-673 cells): 9.8 nM | IC50 (Rh30 cells): 23 nM | IC50 (RD cells): 26 nM | IC50 (RPMI-2650 cells): 13 nM | IC50 (Rh41 cells): 17 nM | IC50 (SiHa cells): 10 nM | IC50 (FaDu cells): 46 nM | IC50 (HBL-1 cells): 24 nM | IC50 (Jeko-1 cells [1]): 20 nM | IC50 (TMD-8 cells): 35 nM | IC50 (GRANTA-519 cells): 44 nM | IC50 (UPN-1 cells): 4.7 nM | IC50 (Jeko-1 cells [2]): 31 nM

Reference: US20160045496A1, “USE OF (RS)-S-CYCLOPROPYL-S-(4--5-(TRIFLUOROMETHYL)PYRIMIDIN-2-YL]AMINO}PHENYL)SULFOXIMIDE FOR TREATMENT OF SPECIFIC TUMOURS” (BAYER PHARMA AKTIENGESELLSCHAFT, priority 2013, published 2016)
